Reference: patent publication US20240391889A1, “ANTIMICROBIAL COMPOUNDS AND THE METHODS OF USE” (priority 2021, published 2024)
≈ marks a conversion by molar mass, not a printed value. Read-outs that look alike come from different tables or passages of the source. Numbered stars: 1 amine (or outer) side, 2 acyl side, 3 side chain; on linkers, the order of the positions; unused ones are H or OH. Square brackets hold non-standard residues; d marks the D form. Peptide text beside a SMILES is read from it. * marks the point of attachment. N(1S-cyclohexylethyl)Gly = C[C@H](NCC(=O)O)C1CCCCC1; N(2-thienylmethyl)Gly = O=C(O)CNCc1cccs1; NCyclohexylmethylGly = O=C(O)CNCC1CCCCC1; N(tridecyl)Gly = CCCCCCCCCCCCCNCC(=O)O; X2 = O=C(CN(c1cccc2ccccc12)[*:1])[*:2]; N(4-MeOBn)Gly = COc1ccc(CNCC(=O)O)cc1; N(4-F-Bzl)Gly = O=C(O)CNCc1ccc(F)cc1; X1 = CC(c1ccccc1)N(CC(=O)[*:2])[*:1]; Gly(N-2-aminoethyl) = NCCNCC(=O)O; Myristoyl = CCCCCCCCCCCCCC(=O)*; NFurfurylGly = O=C(O)CNCc1ccco1; Gly(N(CH2)3NH2) = NCCCNCC(=O)O; Nphe = O=C(O)CNCc1ccccc1; NPrGly = CCCNCC(=O)O; Nlys = NCCCCNCC(=O)O

Assays:
[1] = system: C. albicans; assay type: cell-based, Candida albicans; conditions: 24 h
From the text: (§1) This screening led to the discovery of RMG9-11 (FIG. 2C). The minimum inhibitory concentration (MIC) of resynthesized RMG9-11 was initially determined against C. albicans, C. neoformans, and the ESKAPE bacteria via CSLI guidelines (CLSI. Methods for Dilution Antimicrobial Susceptibility Tests for Bacteria That Grow Aerobically, 11th Edition. Clinical and Laboratory Standards Institute (2018); CLSI. Reference method for broth dilution antifungal susceptibility testing of yeasts; approved standard-third edition; CLSI document M27-A3. Clinical and Laboratory Standards Institute (2008)). […] C. albicans clinical isolates include a reference strain (M1), fluconazole susceptible strains (M4 and M6), and fluconazole resistant strains (M2, M3, M5, and M7). ATCC 64124 is multidrug resistant C. albicans strain that is resistant to amphotericin B, fluconazole, caspofungin, and flucytosine. All MICs were performed under CSLI guidelines in triplicate on at least three different days.
(§2) The minimum inhibitory concentration (MIC) of peptoids against fungal pathogens C. albicans and C. neoformans was determined following CLSI guidelines (Reference method for broth dilution antifungal susceptibility testing of yeasts; approved standard-third edition; CLSI document M27-A3.” CLSI. 2008.). Colonies were transferred from a streaked YPD plate to 0.85% saline to reach an OD530 between 0.18 and 0.25. This inoculant was diluted 1:100 into RPMI-MOPS and then further diluted 1:20 into RPMI-MOPS. 198 μL of inoculant was seeded into each well of a 96 well black-walled plate. 2-fold serial dilutions of 100× peptoid solutions were prepared in water and 2 μL of peptoid were added to each well in triplicate. […] MIC was defined as the lowest concentration of compound preventing fungal growth. This assay was repeated 3 times on separate days with each compound.

[2] = system: C. neoformans; assay type: cell-based, Cryptococcus neoformans; conditions: 72 h
From the text: as §1, §2

[3] = system: HepG2 liver cells; experiment: in vitro; assay type: cell-based
Description: (§3) The mammalian cell lines that were tested (HepG2, 3T3, and HaCat) were incubated with RMG9-11 for 72 hours and cell viability was determined via mitochondrial activity using an MTT reduction assay where viable cells reduce MTT to formazan. Toxicity is reported as the concentration of the peptoid that results in a 50% reduction in viable cells, termed toxicity dose 50% or TD50. […] SR is defined as the TD50 divided by MIC and provides a measure of the therapeutic window for a compound. Typically for most lead compounds that would continue through development and optimization, a SR of 10 is preferred while an SR of 100 is more desirable for a compound moving into preclinical animal model evaluation.
(§4) Hepatocellular carcinoma (HepG2), mouse fibroblast (3T3), and human keratinocyte (HaCat) cells were cultured in Dulbeco modified eagle media (DMEM) containing 10% fetal bovine serum (FBS) and 1% penicillin, streptomycin, and glutamine (PSG) at 37° C. and 5% CO2. Cells were collected and adjusted to […] to 4×10^5 cells/mL in phenol-red free DMEM and plated (100 μL) 96 well plates. 2-fold serial dilutions of 10× peptoid (11.1 μL) were added to each well in triplicate. Water (vehicle) was used as a negative control. Plates were incubated at 37° C. in 5% CO2 for 72 hours. Thiazolyl blue tetrazolium bromide (MTT) was added to each well (5 mg/mL; 20 μL) and incubated for 3 hours. Media was removed, DMSO (100 μL) was added, and plates were incubated at 37° C. for 10 minutes. Plates were read on a SPECTRAMAX M5 plate reader (Abs. 570 nm). The concentration of compound resulting in a 50% reduction in growth compared to control (toxicity dose 50%; TD50) was determined using GRAFIT. This procedure was repeated three times on separate days.

[4] = in vitro; assay type: cell-based; conditions: human, HepG2 hepatocellular carcinoma cells
Description: as §3, §4

[5] = Percent acetonitrile at time of elution from RP-HPLC (hydrophobicity); assay type: physicochemical
Description: Round 1 of the iterative SAR explored two miscellaneous derivatives along with derivatives that explored substitutions in position 3 (R^2; FIG. 6). Structures were confirmed by ESI-MS and hydrophobicity was determined by the percent acetonitrile at time of elution during RP-HPLC purification and using MarvinSketch to calculate the distribution coefficient at pH 7.4 (Table 5). Only one derivative of position 1 (group T of Formula 1) was explored, substituting a 14-carbon fatty acid (myristic acid) tail in place of the tridecyl tail (911-M1). This was tested because this fatty acid was previously shown to improve activity with C. albicans while reducing toxicity (Green R M, Bicker R. L. Evaluation of peptoid mimics of short, lipophilic peptide antimicrobials. Int J Antimicrob Agents. 2020; 56(2):106048. doi:10.1016/j.ijantimicag.2020.106048). The second miscellaneous derivative tested substituting the propyl group (Nnva) in position 2 (R^1) with a cationic group in an effort to reduce toxicity without effecting antifungal activity (911-M2). […]

MIC C. albicans [1] [µg/mL] | MIC C. neoformans [2] [µg/mL] | MIC C. neoformans ([2]; listed as 911-10) | % ACN [5] [%] | Compound | HepG2 TD50 [3] [µg/mL] | cytotoxicity compared to RMG9-11 [3] | CC50 at 72 h [4] [µg/mL] | toxicity compared to 911-M1 [3]
3.13 to 6.25 | 3.13 (≈ 2.92 µM) |  |  | CCCCCCCCCCCCCC(=O)NCC(=O)N(CCC)CC(=O)N(CC(=O)N(CCCCN)CC(=O)N(CC(=O)N(CC(=O)N(CCCN)CC(N)=O)Cc1ccccc1)Cc1ccco1)C(C)c1ccccc1 (stereo not drawn) [Compound 911-M1] (Myristoyl-G[NPrGly][X1][Nlys][NFurfurylGly][Nphe][Gly(N(CH2)3NH2)]-NH2) | 144.5 ± 22.6 | decreased cytotoxicity | 144 ± 22.6 (≈ 135 µM) | 
6.25 to 12.5 | 3.13 (≈ 3 µM) |  |  | CCCCCCCCCCCCCNCC(=O)N(CCN)CC(=O)N(CC(=O)N(CCCCN)CC(=O)N(CC(=O)N(CC(=O)N(CCCN)CC(N)=O)Cc1ccccc1)Cc1ccco1)C(C)c1ccccc1 (stereo not drawn) [Compound 911-M2] (H-[N(tridecyl)Gly][Gly(N-2-aminoethyl)][X1][Nlys][NFurfurylGly][Nphe][Gly(N(CH2)3NH2)]-NH2) |  | dramatic decrease in cytotoxicity | 177 ± 20.5 (≈ 170 µM) | 
6.25 (≈ 6.04 µM) | 0.78 to 1.56 | sub-one | 72.3 | CCCCCCCCCCCCCNCC(=O)N(CCC)CC(=O)N(CC(=O)N(CCCCN)CC(=O)N(CC(=O)N(CC(=O)N(CCCN)CC(N)=O)Cc1ccccc1)Cc1ccco1)CC1CCCCC1 [Compound 911-M10] (H-[N(tridecyl)Gly][NPrGly][NCyclohexylmethylGly][Nlys][NFurfurylGly][Nphe][Gly(N(CH2)3NH2)]-NH2; N-terminus assumed) |  |  | 97.8 ± 18.3 (≈ 94.5 µM) | 
6.25 (≈ 5.64 µM) | 3.13 to 6.25 |  |  | CCCCCCCCCCCCCC(=O)NCC(=O)N(CCC)CC(=O)N(CC(=O)N(CCCCN)CC(=O)N(CC(=O)N(CC(=O)N(CCCN)CC(N)=O)c1cccc2ccccc12)Cc1ccco1)C(C)c1ccccc1 (stereo not drawn) [Compound 911-M15] (Myristoyl-G[NPrGly][X1][Nlys][NFurfurylGly][X2][Gly(N(CH2)3NH2)]-NH2) |  |  | 122 ± 21.3 (≈ 111 µM) | 
6.25 (≈ 5.67 µM) | 3.13 to 6.25 |  |  | CCCCCCCCCCCCCC(=O)NCC(=O)N(CCC)CC(=O)N(CC(=O)N(CCCCN)CC(=O)N(CC(=O)N(CC(=O)N(CCCN)CC(N)=O)Cc1ccc(OC)cc1)Cc1ccco1)C(C)c1ccccc1 (stereo not drawn) [Compound 911-M16] (Myristoyl-G[NPrGly][X1][Nlys][NFurfurylGly][N(4-MeOBn)Gly][Gly(N(CH2)3NH2)]-NH2) |  |  | 136 ± 39.6 (≈ 123 µM) | 
6.25 (≈ 5.73 µM) | 3.13 to 6.25 |  |  | CCCCCCCCCCCCCC(=O)NCC(=O)N(CCC)CC(=O)N(CC(=O)N(CCCCN)CC(=O)N(CC(=O)N(CC(=O)N(CCCN)CC(N)=O)[C@@H](C)C1CCCCC1)Cc1ccco1)C(C)c1ccccc1 (stereo partly drawn) [Compound 911-M17] (Myristoyl-G[NPrGly][X1][Nlys][NFurfurylGly][N(1S-cyclohexylethyl)Gly][Gly(N(CH2)3NH2)]-NH2) |  |  | 81.6 ± 5.97 (≈ 74.8 µM) | markedly more toxic
6.25 (≈ 5.89 µM) | 6.25 (≈ 5.89 µM) |  |  | CCCCCCCCCCCCCC(=O)NCC(=O)N(CCC)CC(=O)N(CC(=O)N(CCCCN)CC(=O)N(CC(=O)N(CC(=O)N(CCCN)CC(N)=O)Cc1ccco1)Cc1ccco1)C(C)c1ccccc1 (stereo not drawn) [Compound 911-M18] (Myristoyl-G[NPrGly][X1][Nlys][NFurfurylGly][NFurfurylGly][Gly(N(CH2)3NH2)]-NH2) | 151.96 ± 8.04 |  | 152 ± 8.04 (≈ 143 µM) | slightly though not significantly better
6.25 (≈ 5.74 µM) | 3.13 (≈ 2.87 µM) |  |  | CCCCCCCCCCCCCC(=O)NCC(=O)N(CCC)CC(=O)N(CC(=O)N(CCCCN)CC(=O)N(CC(=O)N(CC(=O)N(CCCN)CC(N)=O)Cc1ccc(F)cc1)Cc1ccco1)C(C)c1ccccc1 (stereo not drawn) [Compound 911-M19] (Myristoyl-G[NPrGly][X1][Nlys][NFurfurylGly][N(4-F-Bzl)Gly][Gly(N(CH2)3NH2)]-NH2) |  |  | 106 ± 34.8 (≈ 97.6 µM) | 
6.25 (≈ 5.8 µM) | 3.13 (≈ 2.9 µM) |  |  | CCCCCCCCCCCCCC(=O)NCC(=O)N(CCC)CC(=O)N(CC(=O)N(CCCCN)CC(=O)N(CC(=O)N(CC(=O)N(CCCN)CC(N)=O)CC1CCCCC1)Cc1ccco1)C(C)c1ccccc1 (stereo not drawn) [Compound 911-M20] (Myristoyl-G[NPrGly][X1][Nlys][NFurfurylGly][NCyclohexylmethylGly][Gly(N(CH2)3NH2)]-NH2) |  |  | 79.6 ± 5.12 (≈ 73.9 µM) | markedly more toxic
6.25 (≈ 5.8 µM) | 3.13 to 6.25 |  |  | CCCCCCCCCCCCCC(=O)NCC(=O)N(CCC)CC(=O)N(CC(=O)N(CCCCN)CC(=O)N(CC(=O)N(CC(=O)N(CCCN)CC(N)=O)Cc1cccs1)Cc1ccco1)C(C)c1ccccc1 (stereo not drawn) [Compound 911-M21] (Myristoyl-G[NPrGly][X1][Nlys][NFurfurylGly][N(2-thienylmethyl)Gly][Gly(N(CH2)3NH2)]-NH2) |  |  | 135 ± 52.1 (≈ 125 µM) | 
6.25 (≈ 5.76 µM) | 3.13 (≈ 2.88 µM) |  |  | CCCCCCCCCCCCCC(=O)NCC(=O)N(CCC)CC(=O)N(CC(=O)N(CCCCN)CC(=O)N(CC(=O)N(CC(=O)N(CCCN)CC(N)=O)C(C)c1ccccc1)Cc1ccco1)C(C)c1ccccc1 (stereo not drawn) [Compound 911-M22] (Myristoyl-G[NPrGly][X1][Nlys][NFurfurylGly][X1][Gly(N(CH2)3NH2)]-NH2) |  |  | 113 ± 41.9 (≈ 104 µM) | 
